# Data reported in patent US20230094922A1, “METHODS OF THERAPEUTIC PROGNOSTICATION” (GENETIKAPLUS LTD., priority 2020, published 2023).
# System: iPSC-derived cortical neurons
# Assay type: cell-based
# [1] = responders vs non-responders after 10 μM Bupropion, NS
smiles,measurement,setting,value
"CC(NC(C)(C)C)C(=O)c1cccc(Cl)c1 (stereo not drawn) [Bupropion, 3-Chloro-N-tert-butyl-β-keto-α-methylphenethylamin]",number of genes significantly downregulated in responders as compared to non-responders,"10 μm Bupropion, p<0.01, Table 4",174 genes
same,number of genes significantly upregulated in responders as compared to non-responders after treatment,"10 μm Bupropion, p<0.01, over 60,000 genes probed",69 genes
same,logFC ABLIM2,[1],−1.305
same,logFC ABLIM3,[1],−2.05
same,logFC ACTL6B,[1],−1.577
same,logFC ADCY1,[1],−1.308
same,logFC ADCY5,[1],−1.299
same,logFC ADCYAP1R1,[1],−1.154
same,logFC ADD2,[1],−0.7958
same,logFC ADGRB3,[1],−1.496
same,logFC ADRA1B,[1],−2.202
same,logFC AGAP2,[1],−1.343
same,logFC AK5,[1],−1.456
same,logFC AKAP6,[1],−1.215
same,logFC AKR1C2,[1],−1.478
same,logFC ALPK3,[1],−1.224
same,logFC AMER3,[1],−1.722
same,logFC ANK1,[1],−1.875
same,logFC ANK2,[1],−0.959
same,logFC ANK3,[1],−1.262
same,logFC ANKH,[1],−0.9269
same,logFC ANKRD30BL,[1],−2.897
same,logFC ANKRD53,[1],−1.517
same,logFC ANKRD55,[1],−1.879
same,logFC AP3B2,[1],−1.482
same,logFC APBB1,[1],−0.8199
same,logFC APC,[1],−0.916
same,logFC APLP1,[1],−1.076
same,logFC ARHGAP20,[1],−2.01
same,logFC ARHGAP26,[1],−0.7629
same,logFC ARHGAP33,[1],−0.9502
same,logFC ARHGAP36,[1],−2.569
same,logFC ARPP21,[1],−3.247
same,logFC ASB8,[1],−0.7127
same,logFC ASIC4,[1],−1.72
same,logFC ATAT1,[1],−0.8189
same,logFC ATCAY,[1],−1.047
same,logFC ATP1A3,[1],−1.336
same,logFC ATP2B3,[1],−1.771
same,logFC ATP6V0A1,[1],−0.6012
same,logFC ATP6V0E2,[1],−1.011
same,logFC B3GALNT1,[1],−2.052
same,logFC B3GALT2,[1],−1.685
same,logFC BASP1,[1],−0.8607
same,logFC BINI,[1],−0.8522
same,logFC BMERB1,[1],−0.8373
same,logFC BRINP1,[1],−1.623
same,logFC BRSK1,[1],−0.753
same,logFC BSN,[1],−1.599
same,logFC C1orf216,[1],−1.465
same,logFC C4orf50,[1],−1.94
same,logFC CA10,[1],−2.576
same,logFC CACNA1B,[1],−1.253
same,logFC CACNB1,[1],−1.261
same,logFC CACNB3,[1],−0.6878
same,logFC CACNG2,[1],−1.666
same,logFC CACNG3,[1],−1.337
same,logFC CADM3,[1],−1.659
same,logFC CADM4,[1],−0.6745
same,logFC CALB2,[1],−1.647
same,logFC CAMK1D,[1],−0.9513
same,logFC CAMK2B,[1],−1.689
same,logFC CAMSAP3,[1],−0.8932
same,logFC CASKIN1,[1],−0.9781
same,logFC CCDC141,[1],−2.886
same,logFC CCDC184,[1],−1.385
same,logFC CDH7,[1],−1.611
same,logFC CDH12,[1],−2.03
same,logFC CDK5R1,[1],−1.375
same,logFC CELF3,[1],−1.26
same,logFC CELF4,[1],−1.812
same,logFC CEP170B,[1],−0.6703
same,logFC CEP295NL,[1],−1.321
same,logFC CHGA,[1],−1.543
same,logFC CHGB,[1],−1.246
same,logFC CHRFAM7A,[1],−1.645
same,logFC CHRM2,[1],−2.12
same,logFC CHRNA1,[1],−2.49
same,logFC CHRNA4,[1],−1.718
same,logFC CHRNB2,[1],−1.815
same,logFC CHST1,[1],−1.711
same,logFC CLASP2,[1],−0.7536
same,logFC CLCN4,[1],−0.8168
same,logFC CLDN5,[1],−1.453
same,logFC CLIP2,[1],−0.856
same,logFC CLSTN3,[1],−0.8161
same,logFC CMIP,[1],−0.6391
same,logFC CNTN1,[1],−1.722
same,logFC CORO2B,[1],−1.199
same,logFC CPLX1,[1],−1.467
same,logFC CPLX2,[1],−1.647
same,logFC CRB1,[1],−1.691
same,logFC CREG2,[1],−1.282
same,logFC CRMP1,[1],−1.121
same,logFC CSMD1,[1],−1.31
same,logFC CTNND2,[1],−1.034
same,logFC CXCL11,[1],−2.544
same,logFC CYGB,[1],−1.896
same,logFC DAAM1,[1],−0.6945
same,logFC DBNDD1,[1],−0.8117
same,logFC DCLK2,[1],−1.477
same,logFC DES,[1],−2.44
same,logFC DIRAS1,[1],−1.66
same,logFC DIRAS2,[1],−1.952
same,logFC DISP2,[1],−1.757
same,logFC DKK3,[1],−1.052
same,logFC DMTN,[1],−1.522
same,logFC DOK5,[1],−1.085
same,logFC DPF1,[1],−1.34
same,logFC DPP10,[1],−1.13
same,logFC DPYSL4,[1],−1.082
same,logFC DRD2,[1],−1.595
same,logFC DSCAML1,[1],−1.404
same,logFC DTX1,[1],−1.204
same,logFC EBF1,[1],−1.335
same,logFC ELAVL4,[1],−1.326
same,logFC ELFN2,[1],−1.113
same,logFC EPB41L1,[1],−0.9134
same,logFC EPHA8,[1],−1.345
same,logFC ERAP2,[1],−2.32
same,logFC ETFB,[1],−1.045
same,logFC EVI5L,[1],−0.9714
same,logFC EYA1,[1],−0.8128
same,logFC F7,[1],−1.608
same,logFC FAIM2,[1],−1.923
same,logFC FAM131B,[1],−0.8962
same,logFC FAM219A,[1],−0.8506
same,logFC FAM222A,[1],−1.164
same,logFC FAR2,[1],−1.384
same,logFC FAXC,[1],−0.9556
same,logFC FBXO41,[1],−0.97
same,logFC FGF14,[1],−1.149
same,logFC FMN2,[1],−1.148
same,logFC FRMD5,[1],−0.7871
same,logFC FRMPD4,[1],−2.13
same,logFC FSTL4,[1],−1.8
same,logFC FSTL5,[1],−1.624
same,logFC GABBR2,[1],−2.251
same,logFC GABRG3,[1],−1.687
same,logFC GABRR1,[1],−2.904
same,logFC GAD2,[1],−1.46
same,logFC GALNT9,[1],−1.69
same,logFC GALNTL6,[1],−1.861
same,logFC GAP43,[1],−1.304
same,logFC GCK,[1],−1.587
same,logFC GDPD5,[1],−1.245
same,logFC GFOD1,[1],−1.12
same,logFC GLRA1,[1],−2.174
same,logFC GLRA2,[1],−1.929
same,logFC GLRA3,[1],−3.119
same,logFC GMIP,[1],−0.765
same,logFC GNAO1,[1],−1.181
same,logFC GOLGA7B,[1],−1.854
same,logFC GPR26,[1],−2.221
same,logFC GPR139,[1],−1.695
same,logFC GPR158,[1],−1.27
same,logFC GPRIN1,[1],−1.521
same,logFC GPSM1,[1],−0.733
same,logFC GRIA4,[1],−1.263
same,logFC GRIK2,[1],−1.1
same,logFC GRIN1,[1],−1.919
same,logFC HECW1,[1],−1.709
same,logFC HERC1,[1],−0.5953
same,logFC HID1,[1],−0.975
same,logFC HK1,[1],−0.5528
same,logFC HRH3,[1],−1.315
same,logFC HTR5A,[1],−2.98
same,logFC IFI27,[1],−1.463
same,logFC IFIT5,[1],−0.8218
same,logFC IGLON5,[1],−0.9869
same,logFC IGSF8,[1],−0.6614
same,logFC INA,[1],−1.425
same,logFC INSM1,[1],−1.183
same,logFC ISL1,[1],−2.075
same,logFC ISLR2,[1],−2.565
same,logFC JAKMIP1,[1],−1.737
same,logFC KBTBD11,[1],−1.03
same,logFC KCNA2,[1],−1.235
same,logFC KCNC2,[1],−2.213
same,logFC KCNH6,[1],−1.966
same,logFC KCNIP1,[1],−1.502
same,logFC KCNJ3,[1],−1.979
same,logFC KCNJ6,[1],−1.811
same,logFC KCNJ9,[1],−1.383
same,logFC KCNK3,[1],−2.03
same,logFC KCNQ2,[1],−1.053
same,logFC KCNS2,[1],−2.976
same,logFC KIAA0513,[1],−1.005
same,logFC KIAA1755,[1],−1.809
same,logFC KIF3C,[1],−1.295
same,logFC KIF5A,[1],−1.285
same,logFC KIFAP3,[1],−0.9071
same,logFC KIRREL3,[1],−1.338
same,logFC KLHL1,[1],−2.102
same,logFC LG14,[1],−0.9845
same,logFC LGI2,[1],−1.253
same,logFC LGI3,[1],−2.434
same,logFC LHFPL4,[1],−1.28
same,logFC LMTK3,[1],−0.9148
same,logFC LRATD1,[1],−1.429
same,logFC LRFN2,[1],−1.645
same,logFC LRRC4C,[1],−1.523
same,logFC LRRC7,[1],−1.643
same,logFC LRRC55,[1],−1.342
same,logFC LRRTM2,[1],−1.587
same,logFC LSM11,[1],−0.7282
same,logFC LZTS1,[1],−1.332
same,logFC MAP1A,[1],−1.103
same,logFC MAPK8IP2,[1],−1.461
same,logFC MAPRE2,[1],−0.7432
same,logFC MAST1,[1],−1.276
same,logFC MFNG,[1],−1.262
same,logFC MFSD6,[1],−1.112
same,logFC MKRN3,[1],−1.448
same,logFC MPO,[1],−2.163
same,logFC MPP3,[1],−1.029
same,logFC MRAS,[1],−0.5698
same,logFC MTMR7,[1],−1.1
same,logFC MTSS1,[1],−0.9406
same,logFC MX1,[1],−1.291
same,logFC MXRA7,[1],−0.6421
same,logFC MYL1,[1],−4.411
same,logFC NACAD,[1],−0.8329
same,logFC NAP1L5,[1],−0.871
same,logFC NCAM1,[1],−1.37
same,logFC NCAM2,[1],−1.147
same,logFC NDRG4,[1],−1.32
same,logFC NECAP1,[1],−0.6044
same,logFC NEGR1,[1],−1.829
same,logFC NFASC,[1],−1.15
same,logFC NHLH1,[1],−1.305
same,logFC NHLH2,[1],−2.363
same,logFC NKAIN4,[1],−0.8753
same,logFC NMNAT2,[1],−1.044
same,logFC NOVAI,[1],−0.9754
same,logFC NPAS3,[1],−1.402
same,logFC NPM2,[1],−1.674
same,logFC NR1I3,[1],−1.278
same,logFC NRSN1,[1],−1.718
same,logFC NRXN1,[1],−1.372
same,logFC NSG1,[1],−1.704
same,logFC NSG2,[1],−1.942
same,logFC NTM,[1],−1.35
same,logFC NTNG1,[1],−1.193
same,logFC NWD2,[1],−2.251
same,logFC NXPH4,[1],−1.744
same,logFC NYAP1,[1],−0.9844
same,logFC NYAP2,[1],−2.578
same,logFC OLFM2,[1],−1.002
same,logFC OTUD7A,[1],−1.036
